Assay [1] concerns STING pathway. Nature of the assay: Western blot for STING pathway activation: decitabine pretreatment followed by 2′3′-cGAMP. The format is cell-based, human. To be noted: for STING pathway activation (pTBK1 and pIRF3 expression) in response to cGAMP: 250 nM decitabine for 5 days, then 2′3′-cGAMP, protein at 4 h and 24 h, cell lines previously unresponsive to cGAMP. How it is done: (§1) Western Blots: Cells were washed 2× with ice cold 1×PBS and lysed on ice with RIPA lysis buffer, containing protease/phosphatase inhibitors, and benzonase. Lysates were spun down for 15 min 14,000×g at 4 degrees C. Protein was denatured, ran on 4-12% NuPage Bis-Tris gels in 1×MOPS buffer, and transferred to PVDF membrane. The membrane was blocked in 5% Blotting grade blocker (BioRad 170-6404) dissolved in 1×TBS 0.1% TWEEN. Primary antibody was added according to manufacturer's protocol and incubated overnight at 4° C. Membranes were then incubated with secondary HRP antibody and screened with Supersignal Pico ECL. A ChemiDoc MP (BioRad) and an iBright 1500FL imager (ThermoFisher) were used to detect the ECL signal.
Protein Isolation and Western Blotting: Cells were washed 2× with ice cold 1×PBS and lysed on ice with RIPA lysis buffer, containing protease/phosphatase inhibitors, and benzonase. Lysates were spun down for 15 min at 14,000×g at 4° C. Protein was denatured at 95° C. for 5 min, ran on 4-12% NuPage Bis-Tris gels in 1×MOPS buffer, and transferred to PVDF membrane. The membrane was blocked in 5% Blotting grade blocker (BioRad) dissolved in 1×TBS 0.1% TWEEN20. Primary antibody was added according to manufacturer's protocol and incubated overnight at 4° C. Membranes were incubated with secondary HRP antibody (Cell Signaling) and screened with Supersignal Pico ECL (ThermoFisher). A ChemiDoc MP (BioRad) and an iBright 1500FL imager (ThermoFisher) were, used to detect the ECL signal. Primary antibodies were used to the following targets: pSTING (Ser366), STING, cGAS, pTBK1 (Ser172), TBK1, pIRF3 (Ser396), IRF3, pSTAT1 (Tyr701), STAT1, IFIT1, ISG15, DNMT1, β-actin (Cell Signaling), IRF3 (Biolegend).
Cell treatment with decitabine: Decitabine (Millipore-Sigma) was dissolved in DMSO to stock concentration of 10 mM and diluted directly before each treatment in 1×PBS. Cells were seeded at 3×10^4 cells/well in 6-well plates (protein) or 1.7×10^5 cells in 10 cm dishes (RNA/DNA). Matched concentrations of DMSO was used as a control. Media was refreshed with treatment daily for 5 days. […]

The subject of assay [2] is STING. The experiment in a line: Western blot of STING after decitabine treatment of GBM cell lines. Type of assay: cell-based, human. Conditions: 250 nM decitabine for 5 days vs DMSO. The procedure: (§2) Cells were seeded at density of 30,000 cells/well in 6-well plates. Each cell line was seeded in 2 mL of the same media in which they were cultured (cells were cultured in media according to ATCC). The following day (Day 0), a volume of decitabine working solution was added directly to the wells to reach the desired concentration. In the DMSO control wells, DMSO was diluted 1:100 in PBS, with the same amount of DMSO:PBS solution added as that of the decitabine condition. On days 1-5, the media was refreshed, such that the media being added to the wells contained the respective decitabine/DMSO concentration and were prepared immediately before their addition. The cells were harvested for protein on day 6.
as §1, with “A ChemiDoc MP (BioRad) and an iBright 1500FL imager (ThermoFisher) were used to detect the ECL signal.” left out

Assay [3] concerns CpG sites in a ~400 nucleotide window centered on cg16983159. Nature of the assay: Semi-quantitative methylation sequencing assay of bisulfite-treated glioma cell lines. To be noted: LN229 and U138 cells, decitabine vs DMSO. The format is cell-based, human. How it is done: Semi-quantitative methylation sequencing assay: Bisulfite treated DNA was PCR amplified for 40 cycles at 62° C. annealing temperature. Amplification reaction—10 μM of each primer, 25 mM MgCl2, 2.5 mM dNTPs, lx buffer, 0.7U HotStarTaq (Qiagen). Amplicons were sent to Azenta for purification and sanger sequencing with difficult template. Sequence traces were aligned. Percent methylation at the CpGs in the amplicons were estimated by comparing the C peak to the T peak.
Cell treatment with decitabine: Decitabine (Millipore-Sigma) was dissolved in DMSO to stock concentration of 10 mM and diluted directly before each treatment in 1×PBS. Cells were seeded at 3×10^4 cells/well in 6-well plates (protein) or 1.7×10^5 cells in 10 cm dishes (RNA/DNA). Matched concentrations of DMSO was used as a control. Media was refreshed with treatment daily for 5 days. Cells were harvested for protein, RNA and DNA on day 6, or treated with 2′3′-cGAMP for an additional 4 and 24 h and harvested for protein.

For assay [4], the system named is STING (TMEM173) mRNA. Nature of the assay: STING mRNA expression (qPCR) after decitabine treatment of GBM cell lines. Conditions: 250 nM decitabine for 5 days vs DMSO, normalized to beta actin. The format is cell-based, human. How it is done: (§3) Decitabine Treatment: Decitabine was dissolved in DMSO to produce a stock concentration of 10 mM. This stock concentration was diluted directly before each treatment at a 1:100 ratio with 1×PBS to create the working solution with a concentration of […].
Cells were seeded at density of 30,000 cells/well in 6-well plates. Each cell line was seeded in 2 mL of the same media in which they were cultured (cells were cultured in media according to ATCC). The following day (Day 0), a volume of decitabine working solution was added directly to the wells to reach the desired concentration. […]
Protocol for mRNA Expression: RNA expression was measured by converting 250 ng to lug of RNA to cDNA with the iScript cDNA conversion kit (BioRad Cat #1708891) in 20 μL total. […]
20× PrimePCR Primers targeting B-actin (BioRad #qHsa CED0036269), and TMEM173 (BioRad #qHsa CID00010565), were used. Fold change (2^(−Delta Delta Ct) was calculated using B-actin as the housekeeping gene.
Quantitative gene expression analysis: RNA/DNA were co-extracted from cells using Qiagen AllPrep DNA/RNA/miRNA Universal Kit mini kit (Qiagen) for decitabine experiments, and Quick-DNA/RNA™Miniprep Kit for baseline cell expression/methylation, following the manufacturer's protocols. RNA expression was measured by converting 250 ng to 1 μg RNA to 25 cDNA with the iScript cDNA conversion kit (BioRad). […]

Assay [5] has as its system STING promoter CpG site cg16983159. Nature of the assay: cg16983159 site-specific methylation qPCR assay after decitabine treatment of GBM cell lines. Type of assay: cell-based, human. Conditions: 250 nM decitabine for 5 days vs DMSO; GBM cell lines with high STING promoter methylation. The procedure:
as §3
Cells were seeded at density of 30,000 cells/well in 6-well plates. Each cell line was seeded in 2 mL of the same media in which they were cultured (cells were cultured in media according to ATCC). The following day (Day 0), a volume of decitabine working solution was added directly to the wells to reach the desired concentration. In the DMSO control wells, DMSO was diluted 1:100 in PBS, with the same amount of DMSO:PBS solution added as that of the decitabine condition. […]
STING Methylation qPCR Methods: Bisulfite conversion of 25 ng to lug gDNA was done using the EpiTect Bisulfite Kit (Qiagen 59104) following manufactures protocol. […] Percent methylation was calculated as 1/(1+1/(2^-ΔCt))×100 with ΔCt=FAM −VIC. […]
cg16983159 site-specific methylation qPCR assay: A site-specific qPCR assay for measuring cg16983159 methylation was developed using the method described by Yu et al. (Yu et al., 2019). […] Percent methylation was calculated as 100%×1/1+2ΔCt where ΔCt=FAM−VIC. […]

Assay [6] addresses T1, DNMT1 (Homo sapiens, UniProt P26358).
T1 construct: Western blot analysis showing DNMT1 and STING expression following decitabine or DMSO treatment; endogenous in cells; host or cells: GBM/glioma cell lines
Nature of the assay: Western blot of DNMT1 after decitabine treatment of GBM cell lines. The format is cell-based. To be noted: 250 nM decitabine for 5 days vs DMSO; GBM cell lines with high STING promoter methylation. How it is done: as §2
as §1, with “A ChemiDoc MP (BioRad) and an iBright 1500FL imager (ThermoFisher) were used to detect the ECL signal.” left out

Assay [7] concerns cGAS. Nature of the assay: Western blot of cGAS after decitabine treatment of GBM cell lines. Type of assay: cell-based, human. To be noted: 250 nM decitabine for 5 days vs DMSO. How it is done:
as §2
as §1, with “A ChemiDoc MP (BioRad) and an iBright 1500FL imager (ThermoFisher) were used to detect the ECL signal.” left out

In assay [8] the test system is GBM cell suspensions. The experiment in a line: Cytokine secretion of CD14-separated GBM cell suspensions after 2′3′-cGAMP. Type of assay: cell-based, human. To be noted: GBM cell suspensions separated by CD14; 48 h.
Assay [9] concerns GBM tissue slice cultures. Conditions: ex vivo GBM tissue slice cultures (Brown et al., 2021); cited from earlier work.
For assay [10], the system named is cGAS/STING DNA sensing pathway. Nature of the assay: Response of GBM cell lines to cGAS (ISD) and STING (cGAMP) agonists, Western blot. The format is cell-based, human. How it is done:
as §1
Protein Isolation and Western Blotting: Cells were washed 2× with ice cold 1×PBS and lysed on ice with RIPA lysis buffer, containing protease/phosphatase inhibitors, and benzonase. Lysates were spun down for 15 min at 14,000×g at 4° C. Protein was denatured at 95° C. for 5 min, ran on 4-12% NuPage Bis-Tris gels in 1×MOPS buffer, and transferred to PVDF membrane. The membrane was blocked in 5% Blotting grade blocker (BioRad) dissolved in 1×TBS 0.1% TWEEN20. Primary antibody was added according to manufacturer's protocol and incubated overnight at 4° C. Membranes were incubated with secondary HRP antibody (Cell Signaling) and screened with Supersignal Pico ECL (ThermoFisher). […]

For assay [11], the system named is GBM tissue slice cultures. The experiment in a line: Ex vivo GBM slice culture assay with 2′3′-cGAMP. The format is cell-based, human. Conditions: 5 μg/ml, 48 h, TAMC vs tumor cells. How it is done:
GBM slice culture assay: Surgically resected, de-identified newly diagnosed GBM tissue was acquired under a Duke IRB approved protocol within hours of resection. Slice culture studies in this manuscript are extended/additional analyses of slice culture data sets reported in a prior study where the pattern of PRR signaling vs virotherapy was compared (Brown et al., 2021). A portion (˜25%) of fresh tissue was analyzed by flow cytometry to determine relative immune cell subset densities using the following flow cytometry panel after 1:20 Human Tru-Stain FcX treatment (BioLegend): CD45-BUV395 (BD Biosciences), CD14-BV421, CD33-BV510, CD49d-BV605, HLA-DR-BV786, CD31-FITC, CD3/19-BUV737, CD11b-APC, CD16-BV711, CD15-APC-fire7, and either CD155-PE or isotype control-PE antibody (all BioLegend); viability stain (7-AAD, BioLegend) was added after staining. Fresh remaining tissue was sliced into quarters, followed by slicing to −2 mm diameter fragments with a #10 scalpel (Hill-Rom). Slices were cultured in RPMI-1640 (Invitrogen) supplemented with 10% FBS (Sigma-Aldrich), 100 ng/ml EGF (R&D Biosystems); 5 μg/ml insulin (Gibco); 100 ng/ml hydrocortisone (Sigma-Aldrich). […] Supernatant cytokines were measured using the Human Antiviral Legendplex kit and Human Pro-inflammatory Chemokine kit (both BioLegend), per manufacturer's instructions. […]

“Also recorded” adds a separate entry of the source.

Consider two compounds from patent US20240229155A1, “M[…] FOR THE TREATMENT OF GLIOBLASTOMA AND OTHER CANCERS” (Duke University, priority 2021, published 2024).

T1 sequence (P26358 whole entry): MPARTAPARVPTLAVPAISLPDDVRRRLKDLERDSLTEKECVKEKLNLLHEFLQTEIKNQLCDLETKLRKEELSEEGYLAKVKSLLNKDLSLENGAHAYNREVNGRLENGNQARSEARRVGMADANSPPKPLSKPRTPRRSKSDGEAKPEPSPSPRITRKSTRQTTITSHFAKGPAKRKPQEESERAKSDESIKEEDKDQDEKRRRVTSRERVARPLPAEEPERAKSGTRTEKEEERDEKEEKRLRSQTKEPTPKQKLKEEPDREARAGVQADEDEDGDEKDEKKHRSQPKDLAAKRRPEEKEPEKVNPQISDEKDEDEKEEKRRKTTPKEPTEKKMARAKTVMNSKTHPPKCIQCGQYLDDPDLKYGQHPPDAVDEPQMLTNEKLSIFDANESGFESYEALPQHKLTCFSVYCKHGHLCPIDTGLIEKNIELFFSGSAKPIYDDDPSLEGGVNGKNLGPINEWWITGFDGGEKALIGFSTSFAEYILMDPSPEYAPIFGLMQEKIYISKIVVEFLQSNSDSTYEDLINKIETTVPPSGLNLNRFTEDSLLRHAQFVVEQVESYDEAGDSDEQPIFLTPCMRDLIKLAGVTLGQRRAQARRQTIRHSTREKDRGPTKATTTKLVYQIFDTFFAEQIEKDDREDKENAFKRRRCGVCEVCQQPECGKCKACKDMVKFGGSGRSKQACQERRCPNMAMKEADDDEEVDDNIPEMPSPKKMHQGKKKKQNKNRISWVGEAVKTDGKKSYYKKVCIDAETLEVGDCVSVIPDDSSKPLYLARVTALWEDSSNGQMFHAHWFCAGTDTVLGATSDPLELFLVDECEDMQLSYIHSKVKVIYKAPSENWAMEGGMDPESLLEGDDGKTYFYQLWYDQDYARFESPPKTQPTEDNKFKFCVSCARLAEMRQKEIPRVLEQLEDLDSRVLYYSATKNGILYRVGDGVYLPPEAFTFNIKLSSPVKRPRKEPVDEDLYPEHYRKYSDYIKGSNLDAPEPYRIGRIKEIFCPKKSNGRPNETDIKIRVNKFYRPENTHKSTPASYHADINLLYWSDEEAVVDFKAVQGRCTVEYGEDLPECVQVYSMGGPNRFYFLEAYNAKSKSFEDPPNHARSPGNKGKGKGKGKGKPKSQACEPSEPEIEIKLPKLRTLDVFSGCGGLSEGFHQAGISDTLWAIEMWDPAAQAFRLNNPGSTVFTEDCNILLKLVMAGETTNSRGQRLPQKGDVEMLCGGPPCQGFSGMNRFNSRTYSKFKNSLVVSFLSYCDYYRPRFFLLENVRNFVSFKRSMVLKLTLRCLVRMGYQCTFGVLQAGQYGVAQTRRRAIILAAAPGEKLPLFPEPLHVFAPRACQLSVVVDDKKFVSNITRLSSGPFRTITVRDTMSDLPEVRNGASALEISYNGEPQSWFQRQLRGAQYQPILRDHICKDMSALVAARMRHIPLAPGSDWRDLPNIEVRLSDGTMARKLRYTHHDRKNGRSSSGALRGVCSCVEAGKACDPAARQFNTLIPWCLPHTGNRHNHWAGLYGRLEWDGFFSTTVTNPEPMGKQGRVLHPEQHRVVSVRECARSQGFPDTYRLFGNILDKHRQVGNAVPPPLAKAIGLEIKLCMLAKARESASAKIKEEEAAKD

Turning to `Nc1ncn([C@H]2C[C@H](O)[C@@H](CO)O2)c(=O)n1` [Decitabine, 5-azadeoxycytidine], the “STING pathway activation (pTBK1 and pIRF3 expression) in response to cGAMP” value is listed as “restores STING signaling” in [1] and “reactivation or enhancement of the pathway” in assay [1] (listed as decitabine). The “markers of downstream IFN activation (pSTAT1, IFIT1, ISG15)” value in [1] (decitabine pretreatment for 5 days followed by cGAMP) was “induced”. The STING protein expression entry in assay [2] is “increased”. The “methylation state of CpG sites around cg16983159 (bisulfite sequencing)” value in assay [3] is “cg16983159 and upstream CpG sites are demethylated, while downstream sites are not”. The “STING mRNA expression” value in assay [4] is listed as “increased”. Also, the “STING cg16983159 methylation” value in assay [5] is listed as “decreased”. Moreover, the “DNMT1 expression (Western blot)” value in [6] is given as “significant suppression; also recorded: suppressed”. The “cGAS expression (Western blot)” value in assay [7] is “induces”.
For `Nc1nc2c(ncn2[C@@H]2O[C@@H]3COP(=O)(O)O[C@H]4[C@@H](O)[C@H](n5cnc6c(N)ncnc65)O[C@@H]4COP(=O)(O)O[C@@H]2[C@@H]3O)c(=O)[nH]1` [cGAMP, 2′3′-cGAMP], in assay [8], the CXCL10 induction result is “occurred only in CD14+ containing glioma cell suspensions” and the TNF induction result was “occurred only in CD14+ containing glioma cell suspensions”. In assay [9], the CXCL10 induction entry is given as “induced” and the “type I IFNs induction” value was “induced”. For the same compound, the “downstream response (pTBK1, pIRF3) to STING agonist” value in [10] (A172 cell line, high baseline STING expression) is listed as “strong downstream response”. Further, the “downstream response (pTBK1, pIRF3) to STING agonist” value in [10] (U138MG cell line, no STING expression) is “failed to activate pTBK1 or pIRF3”. Further, in [11], the “IFIT1 induction (flow cytometry)” value is recorded as “induced selectively in TAMC”.
